Tested on: subcutaneous liver tumor of genetic constellation p53−/−+Akt-over expression
Assay: Subcutaneous liver cancer model, evaluation of tumor therapy (FIG. 7)
Format: in vivo, mouse
Text: FIG. 7: An example of subcutaneous liver cancer model of this invention on the genetic constellation p53−/−+Akt-over expression and its uses in evaluating tumor therapy. Akt is an […] that is activated in many cancers and may promote drug resistance in vitro (Mayo et al., “PTEN protects p53 from Mdm2 and sensitizes cancer cells to chemotherapy,” J. Biol. Chem. 277: 5484-5489 (2002)).
Most preferably, the therapies are used and evaluated in combination. […] The tumor embodied in FIG. 2 can also be treated with Rapamycin, a targeted therapy that inhibits the mammalian target of rapamycin (mTOR). […] In combination, however, as depicted in FIG. 7, the two therapies control tumor growth.

Compound: Nc1ccn([C@@H]2O[C@H](CO)[C@@H](O)C2(F)F)c(=O)n1 [Gemcitabine]
- tumor growth: virtually no effect on tumor growth
